# Results reported in article PMC8819907 (Journal of Experimental & Clinical Cancer Research : CR, 2022).
# Several values for one entry are separate records, joined by “and”; a condition that tells them apart may be missing. Equal values may be shown once. Entries after “also recorded” stand apart in the source; their conditions may differ. Read-outs that look alike come from different tables or passages of the source.
# Experiments:
# [1] = dose normalized to 2 mg
# [2] = test system: advanced cancer patients with varying degrees of hepatic dysfunction; settings: human, in vivo
# [3] = cited from earlier work
# [4] = test system: RAF-mediated MEK1 activation; parameters: method as in ref 19 (a number printed in a supplementary file, which may have a reference list of its own: not looked up in the article's list); settings: read-out: IC50, inhibition of RAF-mediated MEK1 activation; cited from earlier work
# [5] = test system: acute myeloid leukemia or myelodysplastic syndrome; settings: cited from earlier work
# [6] = parameters: method as in ref 17 (a number printed in a supplementary file, which may have a reference list of its own: not looked up in the article's list); settings: cited from earlier work
# KRAS-mutant NSCLC = test system: KRAS-mutant NSCLC; parameters: method as in ref 24 (a number printed in a supplementary file, which may have a reference list of its own: not looked up in the article's list); settings: cited from earlier work
# MEK2 = test system: MEK2; parameters: method as in ref 17 (a number printed in a supplementary file, which may have a reference list of its own: not looked up in the article's list); settings: read-out: IC50 against MEK2; cited from earlier work
# MEK1 = test system: MEK1; parameters: method as in ref 17 (a number printed in a supplementary file, which may have a reference list of its own: not looked up in the article's list); settings: read-out: IC50 against MEK1; cited from earlier work
# rabbits = settings: rabbit, in vivo; cited from earlier work
# [7] = test system: advanced cancer patients with varying degrees of hepatic dysfunction
# [8] = test system: patients in clinical trials of trametinib; settings: cited from earlier work
# [9] = cited from earlier work; remark: listed apart in the source
# [10] = test system: PC3, BxPC3, and BT474 xenograft lines; settings: no tumor regressions; cited from earlier work
# [11] = cited from earlier work; remark: listed apart in the source
# CYP 2B6 and 3A4 = settings: cited from earlier work
# clinical = settings: human, 2 mg
# pERK = test system: pERK; parameters: method as in ref 17 (a number printed in a supplementary file, which may have a reference list of its own: not looked up in the article's list); settings: cited from earlier work
# [12] = 13 patients with KRAS or NRAS mutations
# [13] = 2 mg monotherapy, 96 total patients
structure (smiles),measurement,setting,value
"CC(=O)Nc1cccc(-n2c(=O)n(C3CC3)c(=O)c3c(Nc4ccc(I)cc4F)n(C)c(=O)c(C)c32)c1 [Trametinib, equimolecular combination of acetamide, N-[3-[3-cyclopropyl-5-[(2-fluoro-4-iodophenyl)amino]-3,4,6,7-tetrahydro6,8-dimethyl-2,4,7-trioxopyrido[4,3-d]pyrimidin-1(2H)-yl]phenyl] with 1,1’-sulfinylbis[methane]]","CLssF, Geo mean (%CV)",[1]; Mild (n = 6),5680.0 (45.5) mL/hr
same,"CLssF, Mean (±SD)",[1]; Mild (n = 6),6200.0 (±2818.6) mL/hr
same,"Cavg, Geo mean (%CV)",[1]; Mild (n = 6),14.7 (51.9) ng/mL
same,"Cavg, Mean (±SD)",[1]; Mild (n = 6),16.2 (±8.4) ng/mL
same,"Cmin, Geo mean (%CV)",[1]; Mild (n = 6),10.8 (57.3) ng/mL
same,"Cmin, Mean (±SD)",[1]; Mild (n = 6),12.1 (±7.0) ng/mL
same,"CLssF, Geo mean (%CV)",[1]; Mod (n = 3),6431.6 (8.4) mL/hr
same,"CLssF, Mean (±SD)",[1]; Mod (n = 3),6446.4(±542.6) mL/hr
same,"Cavg, Geo mean (%CV)",[1]; Mod (n = 3),13.0 (8.1) ng/mL
same,"Cavg, Mean (±SD)",[1]; Mod (n = 3),13.0 (±1.1) ng/mL
same,"Cmin, Geo mean (%CV)",[1]; Mod (n = 3),10.4 (22.4) ng/mL
same,"Cmin, Mean (±SD)",[1]; Mod (n = 3),10.5 (±2.4) ng/mL
same,"CLssF, Geo mean (%CV)",[1]; Norm (n = 10),4449.0 (36.0) mL/hr
same,"CLssF, Mean (±SD)",[1]; Norm (n = 10),4675.0 (±1683.6) mL/hr
same,"Cavg, Geo mean (%CV)",[1]; Norm (n = 10),18.7 (28.1) ng/mL
same,"Cavg, Mean (±SD)",[1]; Norm (n = 10),19.5 (±5.5) ng/mL
same,"Cmin, Geo mean (%CV)",[1]; Norm (n = 10),14.4 (29.8) ng/mL
same,"Cmin, Mean (±SD)",[1]; Norm (n = 10),15.1 (±4.5) ng/mL
same,"CLssF, Geo mean (%CV)",[1]; Sev (n = 3),8736.3 (36.5) mL/hr
same,"CLssF, Mean (±SD)",[1]; Sev (n = 3),9141.3 (±3337.1) mL/hr
same,"Cavg, Geo mean (%CV)",[1]; Sev (n = 3),9.5 (36.4) ng/mL
same,"Cavg, Mean (±SD)",[1]; Sev (n = 3),10.0 (±3.6) ng/mL
same,"Cmin, Geo mean (%CV)",[1]; Sev (n = 3),7.6 (32.3) ng/mL
same,"Cmin, Mean (±SD)",[1]; Sev (n = 3),7.9 (±2.5) ng/mL
same,"differences of PK parameters (Cmax, Cmin, Cavg, AUC0 − 24) between hepatic function groups",[1]; ANOVA,no significant differences; also recorded: not statistically different
same,RP2D,[2],2 mg QD
same,"fecal excretion, of the radioactive dose",[3]; 2 subjects,39.2% and 35.0%
same,"fecal excretion, of excreted radioactivity recovered",[3]; oral dose,> 80%
same,"urinary excretion, of excreted radioactivity recovered",[3]; oral dose,< 19%
same,"urinary excretion, of the radioactive dose",[3]; oral dose,< 10%
same,IC50,[4],0.6 nM
same,best response CRs,[5]; [12],3
same,best response PD,[5]; [12],1
same,best response SD,[5]; [12],7
same,PRs,[5]; 26 patients with wild-type RAS or unknown mutation,2
same,patients withdrew due to an AE,"[5]; AML or MDS, 1-2 mg QD",23%
same,Cmax,"[6]; Day 7, 3 mg/kg, read-out: average Cmax in blood",1410 nM
same,estimated half-life (t1/2),[6]; mice,33 h
same,median PFS,KRAS-mutant NSCLC,11.7 weeks
same,overall response rate (ORR),KRAS-mutant NSCLC,12%
same,IC50,MEK1,0.7 nM
same,Embryofetal toxicity,rabbits,embryotoxic and abortifacient
same,Death related to TRAEs,[7]; Mild 2 mg,0 (0%)
same,Death related to TRAEs,[7]; Mod DL1 1.5 mg,0 (0%)
same,Death related to TRAEs,[7]; Mod DL+1 2 mg,0 (0%)
same,Death related to TRAEs,[7]; Norm 2 mg,0 (0%)
same,Death related to TRAEs,[7]; Sev DL1 1 mg,0 (0%)
same,Death related to TRAEs,[7]; Sev DL+1 1.5 mg,0 (0%)
same,Death related to TRAEs,[7]; Total Patients,0 (0%)
same,Death related to TRAEs,"[7]; Total Patients, listed as trametinib",No treatment related deaths
same,Alanine aminotransferase increased,"[7]; human, in vivo",9 (20%)
same,Anemia,"[7]; human, in vivo",10 (23%)
same,Blood alkaline phosphatase increased,"[7]; human, in vivo",9 (20%)
same,Grade 3 TRAEs,"[7]; human, in vivo",2 events
same,Hypertension,"[7]; human, in vivo",8 (18%)
same,Hypomagnesemia,"[7]; human, in vivo",8 (18%)
same,Hyponatremia,"[7]; human, in vivo",9 (20%)
same,Maculopapular rash,"[7]; human, in vivo",11 (23%)
same,Mucositis,"[7]; human, in vivo",6 (14%)
same,Thrombocytopenia,"[7]; human, in vivo",10 (23%)
same,Treatment discontinuation due to TRAEs,"[7]; human, in vivo",3 (7%)
same,Treatment discontinuation due to non-TRAEs,"[7]; human, in vivo",10 (23%)
same,Vomiting,"[7]; human, in vivo",9 (20%)
same,grade 3 gamma-glutamyl transferase increased,"[7]; human, in vivo",1 patient
same,grade 3 pneumonitis,"[7]; human, in vivo",1 patient
same,grade 4 rash AE,"[8]; 2 mg monotherapy, five studies",four patients
same,LFT changes grade 3 events,[8]; [13],26
same,LFT changes grade 4 events,[8]; [13],6 patients
same,grade 1 or 2 pneumonitis,[8]; 2 mg monotherapy,three subjects
same,grade 3 diarrhea,[8]; 2 mg monotherapy,17 patients
same,grade 3 pneumonitis,[8]; 2 mg monotherapy,six
same,grade 3 visual disorders,[8]; 2 mg monotherapy,six patients
same,grade 4 diarrhea,[8]; 2 mg monotherapy,none
same,grade 4 visual disorder,[8]; 2 mg monotherapy,one patient
same,cases of RPED,"[8]; entire trametinib program as of 23 June 2013, monotherapy or combination",14 cases
same,cases of RPED,"[8]; integrated safety population, 2 mg once daily, five studies",five cases
same,Cmax,[9]; 2 mg QD on Day 15,23 ng/mL
same,mean AUC0-24,[9]; 2 mg QD on Day 15,376 ng·h/mL
same,"Between-subject variability in exposure, AUC0-24",[9]; across all dosing regimens,20-41%
same,"Between-subject variability in exposure, Cmax",[9]; across all dosing regimens,27-50%
same,effective t1/2,[9]; in vivo,approximately 4.5 days
same,steady state reached by,[9]; in vivo,~15 days
same,TGI,[10],44-46%
same,"difference in exposure, mild hepatic impairment vs normal hepatic function",[11]; 64 ([…]) subjects with mild hepatic impairment (NCI classification),2%
same,"oral clearance and exposure, mild hepatic impairment vs normal hepatic function",[11]; population PK analysis,not significantly different
same,CYP 2B6 and 3A4 inducer,CYP 2B6 and 3A4,weak
same,Cmax,clinical; in vivo,27.6 ng/mL
same,AUC(0-t),"clinical; plasma, oral, AUC0 − 24, Geo mean (%CV), Mild (n = 6), dose normalized to 2 mg",352 ng·h/mL
same,AUC(0-t),"clinical; plasma, oral, AUC0 − 24, Geo mean (%CV), Mod (n = 3), dose normalized to 2 mg",311 ng·h/mL
same,AUC(0-t),"clinical; plasma, oral, AUC0 − 24, Geo mean (%CV), Sev (n = 3), dose normalized to 2 mg",229 ng·h/mL
same,AUC(0-t),"clinical; plasma, oral, AUC0 − 24, Mean (±SD), Mild (n = 6), dose normalized to 2 mg",388 ng·h/mL
same,AUC(0-t),"clinical; plasma, oral, AUC0 − 24, Mean (±SD), Mod (n = 3), dose normalized to 2 mg",312 ng·h/mL
same,AUC(0-t),"clinical; plasma, oral, AUC0 − 24, Mean (±SD), Norm (n = 10), dose normalized to 2 mg",469 ng·h/mL
same,AUC(0-t),"clinical; plasma, oral, AUC0 − 24, Mean (±SD), Sev (n = 3), dose normalized to 2 mg",240 ng·h/mL
same,Cmax,"clinical; plasma, oral, Cmax, Geo mean (%CV), Mild (n = 6), dose normalized to 2 mg",26.2 ng/mL
same,Cmax,"clinical; plasma, oral, Cmax, Geo mean (%CV), Mod (n = 3), dose normalized to 2 mg",16.8 ng/mL
same,Cmax,"clinical; plasma, oral, Cmax, Geo mean (%CV), Norm (n = 10), dose normalized to 2 mg",26.2 ng/mL
same,Cmax,"clinical; plasma, oral, Cmax, Geo mean (%CV), Sev (n = 3), dose normalized to 2 mg",15.3 ng/mL
same,Cmax,"clinical; plasma, oral, Cmax, Mean (±SD), Mild (n = 6), dose normalized to 2 mg",29.5 ng/mL
same,Cmax,"clinical; plasma, oral, Cmax, Mean (±SD), Mod (n = 3), dose normalized to 2 mg",16.9 ng/mL
